“And” between values parts separate entries of the source, which are not always exact repeats. Identical values can stand only once. Toxic doses and inconclusive results are not listed. Cut-off read from the data, not from the text of the source: active = T/C of 150% or more; inactive = T/C below 125%.
Tested on: L1210 leukemia ip in BDF1 mice, survival T/C
Assay: NCI In Vivo Anticancer Drug Screen. Data for tumor model L1210 Leukemia (intraperitoneal) in B6D2F1 (BDF1) mice
Details: endpoint: mean survival time, higher = longer survival
Method in brief: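 Antitumor effect is assessed in tumor-bearing animals. Survival in the compound arm is compared with a vehicle-dosed control arm and expressed as their quotient.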

[1] = dose: 100.0 mg/kg/injection, schedule: Q01DX001 (ip), vehicle: saline
[2] = dose: 100.0 mg/kg/injection, schedule: Q01DX009 (ip), vehicle: saline
[3] = dose: 100.0 mg/kg/injection, schedule: Q04DX003 (ip), vehicle: saline
[4] = dose: 200.0 mg/kg/injection, schedule: Q01DX001 (ip), vehicle: saline
[5] = dose: 200.0 mg/kg/injection, schedule: Q01DX009 (ip), vehicle: saline
[6] = dose: 200.0 mg/kg/injection, schedule: Q04DX003 (ip), vehicle: saline
[7] = dose: 400.0 mg/kg/injection, schedule: Q01DX001 (ip), vehicle: saline
[8] = dose: 400.0 mg/kg/injection, schedule: Q04DX003 (ip), vehicle: saline
[9] = dose: 100.0 mg/kg/injection, schedule: Q01DX009 (ip), vehicle: Klucel (hydroxypropylcellulose) (HPC)
[10] = dose: 200.0 mg/kg/injection, schedule: Q01DX009 (ip), vehicle: Klucel (hydroxypropylcellulose) (HPC)
[11] = dose: 400.0 mg/kg/injection, schedule: Q01DX009 (ip), vehicle: Klucel (hydroxypropylcellulose) (HPC)
[12] = dose: 100.0 mg/kg/injection, schedule: Q01DX001 (ip), vehicle: carboxymethylcellulose (CMC)
[13] = dose: 200.0 mg/kg/injection, schedule: Q01DX001 (ip), vehicle: carboxymethylcellulose (CMC)
[14] = dose: 400.0 mg/kg/injection, schedule: Q01DX001 (ip), vehicle: carboxymethylcellulose (CMC)
[15] = dose: 100.0 mg/kg/injection, schedule: Q04DX002 (ip), vehicle: Klucel (hydroxypropylcellulose) (HPC)
[16] = dose: 200.0 mg/kg/injection, schedule: Q04DX002 (ip), vehicle: Klucel (hydroxypropylcellulose) (HPC)
[17] = dose: 400.0 mg/kg/injection, schedule: Q04DX002 (ip), vehicle: Klucel (hydroxypropylcellulose) (HPC)

Measured: T/C

C=C/C=C1\CCOC1=O
inactive: [1] 102 % of control | [2] 101 % of control and 112 % of control | dose: 100.0 mg/kg/injection, schedule: Q04DX002 (ip), vehicle: saline 100 % of control and 111 % of control | [3] 112 % of control | [4] 116 % of control | [5] 104 % of control and 118 % of control | dose: 200.0 mg/kg/injection, schedule: Q04DX002 (ip), vehicle: saline 104 % of control | [6] 100 % of control | [7] 110 % of control | dose: 400.0 mg/kg/injection, schedule: Q01DX009 (ip), vehicle: saline 107 % of control and 115 % of control | dose: 400.0 mg/kg/injection, schedule: Q04DX002 (ip), vehicle: saline 100 % of control and 102 % of control | [8] 115 % of control

CCS(=O)(=O)Nc1ccc(NS(=O)(=O)CC)cc1
inactive: [9] 96 % of control | [10] 100 % of control | [11] 101 % of control

CCOC(=O)c1ccc(NC(=O)C2CC2)cc1
inactive: [9] 113 % of control | [10] 109 % of control | [11] 104 % of control

CC(C)(C)C[CH2][Hg][Cl]
inactive: dose: 6.25 mg/kg/injection, schedule: Q04DX003 (ip), vehicle: Klucel (hydroxypropylcellulose) (HPC) 92 % of control | dose: 12.5 mg/kg/injection, schedule: Q04DX003 (ip), vehicle: Klucel (hydroxypropylcellulose) (HPC) 94 % of control

O=C1C=CC(=O)N1c1ccc([N+](=O)[O-])cc1[N+](=O)[O-]
inactive: dose: 12.5 mg/kg/injection, schedule: Q01DX009 (ip), vehicle: Klucel (hydroxypropylcellulose) (HPC) 98 % of control | dose: 25.0 mg/kg/injection, schedule: Q01DX009 (ip), vehicle: Klucel (hydroxypropylcellulose) (HPC) 103 % of control | dose: 50.0 mg/kg/injection, schedule: Q01DX009 (ip), vehicle: Klucel (hydroxypropylcellulose) (HPC) 103 % of control | [9] 105 % of control

Cc1ccc(C2C(C(=O)c3ccccc3)N2Cc2ccccc2)cc1 (configuration not stated)
inactive: dose: 100.0 mg/kg/injection, schedule: Q01DX001 (ip), vehicle: Klucel (hydroxypropylcellulose) (HPC) 98 % of control | dose: 200.0 mg/kg/injection, schedule: Q01DX001 (ip), vehicle: Klucel (hydroxypropylcellulose) (HPC) 95 % of control

c1ccc(Nc2ccc(C(c3ccccc3)(c3ccccc3)c3ccccc3)cc2)cc1
inactive: dose: 25.6 mg/kg/injection, schedule: Q04DX002 (ip), vehicle: saline with Tween-80 97 % of control | dose: 64.0 mg/kg/injection, schedule: Q04DX002 (ip), vehicle: saline with Tween-80 94 % of control | dose: 160.0 mg/kg/injection, schedule: Q04DX002 (ip), vehicle: saline with Tween-80 97 % of control | dose: 400.0 mg/kg/injection, schedule: Q04DX002 (ip), vehicle: saline with Tween-80 91 % of control

N#CC(C#N)=C(c1ccccc1)C1CCCCC1
inactive: [1] 92 % of control | [4] 94 % of control | [7] 100 % of control

O=C(CCN1CCOCC1)c1csc2ccccc12
inactive: [12] 102 % of control | [13] 102 % of control | [14] 96 % of control

O=C1NC(=O)C2(N1)c1ccccc1-c1ccccc12
inactive: [9] 95 % of control | [10] 90 % of control | [11] 95 % of control

O=C1C(=O)C(CCc2ccccc2)C(=O)/C1=C\c1ccccc1 (configuration not stated)
inactive: dose: 100.0 mg/kg/injection, schedule: Q04DX003 (ip), vehicle: saline with Tween-80 95 % of control | dose: 200.0 mg/kg/injection, schedule: Q04DX003 (ip), vehicle: saline with Tween-80 86 % of control

Cc1noc(/N=C/c2cccc(Cl)c2)c1C
inactive: [1] 101 % of control | [4] 105 % of control | [7] 101 % of control

CC(C)OC(=S)S
inactive: dose: 25.0 mg/kg/injection, schedule: Q01DX009 (ip), vehicle: saline 100 % of control | dose: 50.0 mg/kg/injection, schedule: Q01DX009 (ip), vehicle: saline 94 % of control | [2] 93 % of control

CC[N+](=Cc1ccccc1)C1CCCCC1
inactive: [2] 88 % of control | [3] 100 % of control | [5] 93 % of control | [6] 97 % of control | [8] 108 % of control

CCC1=C[C@H]2CN(CCc3c([nH]c4ccccc34)[C@@](C(=O)OC)(c3cc4c(cc3OC)N(C)[C@H]3[C@@](O)(C(=O)OC)[C@H](OC(C)=O)[C@]5(CC)C=CCN6CC[C@]43[C@@H]65)C2)C1
inactive: dose: 0.25 mg/kg/injection, schedule: Q01DX009 (ip), vehicle: water 109 % of control | dose: 0.5 mg/kg/injection, schedule: Q01DX009 (ip), vehicle: water 101 % of control | dose: 1.0 mg/kg/injection, schedule: Q01DX009 (ip), vehicle: water 111 % of control | dose: 2.0 mg/kg/injection, schedule: Q01DX009 (ip), vehicle: water 103 % of control | dose: 4.0 mg/kg/injection, schedule: Q01DX009 (ip), vehicle: water 114 % of control | dose: 8.0 mg/kg/injection, schedule: Q01DX009 (ip), vehicle: water 112 % of control

NC(CSC(c1ccccc1)(c1ccccc1)c1ccc(C(=O)O)cc1)C(=O)O (configuration not stated)
inactive: dose: 12.5 mg/kg/injection, schedule: Q01DX009 (ip), vehicle: water 106 % of control | dose: 25.0 mg/kg/injection, schedule: Q01DX009 (ip), vehicle: water 102 % of control and 103 % of control | dose: 50.0 mg/kg/injection, schedule: Q01DX009 (ip), vehicle: water 103 % of control and 100 % of control | dose: 100.0 mg/kg/injection, schedule: Q01DX009 (ip), vehicle: water 101 % of control and 108 % of control | dose: 200.0 mg/kg/injection, schedule: Q01DX009 (ip), vehicle: water 102 % of control | dose: 400.0 mg/kg/injection, schedule: Q01DX009 (ip), vehicle: water 97 % of control and 102 % of control

Nc1cc(Cl)cc2c1-c1ccc(Cl)cc1/C2=N\O
inactive: [12] 100 % of control | [13] 97 % of control | [14] 97 % of control

Cc1ccc(NC(=S)Nc2ccccc2)cc1Cl
inactive: [15] 106 % of control | [16] 100 % of control | [17] 100 % of control

C=C(Br)CNC(=O)CCC
inactive: dose: 5.0 mg/kg/injection, schedule: Q04DX003 (ip), vehicle: saline 92 % of control | dose: 10.0 mg/kg/injection, schedule: Q04DX003 (ip), vehicle: saline 97 % of control

CCCCCCCCCCC(=O)[O][Hg][c]1ccccc1
inactive: dose: 9.38 mg/kg/injection, schedule: Q01DX001 (ip), vehicle: saline 98 % of control | dose: 18.75 mg/kg/injection, schedule: Q01DX001 (ip), vehicle: saline 93 % of control

CC1(O)CCCCCC1
inactive: dose: 50.0 mg/kg/injection, schedule: Q01DX001 (ip), vehicle: carboxymethylcellulose (CMC) 107 % of control | [12] 100 % of control | [13] 94 % of control | [14] 89 % of control

Cc1c(F)cccc1OCC(=O)O
inactive: [15] 111 % of control | [16] 108 % of control | [17] 105 % of control

N#CCc1ccccc1N(C(=O)CCl)C(=O)CCl
inactive: dose: 100.0 mg/kg/injection, schedule: Q01DX001 (ip), vehicle: saline sonified 98 % of control | dose: 200.0 mg/kg/injection, schedule: Q01DX001 (ip), vehicle: saline sonified 103 % of control | dose: 400.0 mg/kg/injection, schedule: Q01DX001 (ip), vehicle: saline sonified 103 % of control

Clc1ccccc1N=C1NN(c2c3ccccc3nc3ccccc23)Nc2ccccc21
inactive: dose: 100.0 mg/kg/injection, schedule: Q04DX003 (ip), vehicle: acetone 94 % of control | dose: 200.0 mg/kg/injection, schedule: Q04DX003 (ip), vehicle: acetone 90 % of control | dose: 400.0 mg/kg/injection, schedule: Q04DX003 (ip), vehicle: acetone 87 % of control

C(=C/P(c1ccccc1)c1ccccc1)/P(c1ccccc1)c1ccccc1
inactive: dose: 75.0 mg/kg/injection, schedule: Q01DX001 (ip), vehicle: saline 108 % of control | dose: 150.0 mg/kg/injection, schedule: Q01DX001 (ip), vehicle: saline 98 % of control | dose: 300.0 mg/kg/injection, schedule: Q01DX001 (ip), vehicle: saline 93 % of control

O=C1N(c2ccccc2)C(=O)N1c1ccccc1
inactive: dose: 100.0 mg/kg/injection, schedule: Q04DX003 (ip), vehicle: Klucel (hydroxypropylcellulose) (HPC) 93 % of control | dose: 200.0 mg/kg/injection, schedule: Q04DX003 (ip), vehicle: Klucel (hydroxypropylcellulose) (HPC) 96 % of control

Reference: PubChem BioAssay AID248 (DTP/NCI, 2004)
